Assay [1] concerns the target T1, Mu-type opioid receptor (Homo sapiens, UniProt P35372). Briefly: Binding affinity at cloned human mu-opioid receptor.
For assay [2], the target named is T2, Delta-type opioid receptor (Homo sapiens, UniProt P41143). Briefly: Binding affinity at cloned human delta-opioid receptor.
The target of assay [3] is T1, Mu-type opioid receptor. Briefly: Agonist potency using GTP-gamma [35S]- binding assay for mu-opioid receptor; Inactive.
In assay [4] the target is T3, Kappa-type opioid receptor (Homo sapiens, UniProt P41145). Briefly: Binding affinity at cloned human opioid receptor kappa 1.
For assay [5], the target named is T2, Delta-type opioid receptor. Briefly: Agonist potency using GTP-gamma [35S]- binding assay for delta-opioid receptor; Inactive.
For assay [6], the target named is T3, Kappa-type opioid receptor.
The target in assay [7] is T3, Kappa-type opioid receptor. Briefly: Agonist potency using GTP-gamma [35S]- binding assay for opioid receptor kappa 1.
Assay [8] addresses T3, Kappa-type opioid receptor. Briefly: Compound was tested for maximum stimulation of opioid receptor kappa 1 by GTP-gamma [35S]- binding assay.
Assay [9] addresses T2, Delta-type opioid receptor. Briefly: Agonist potency using GTP-gamma [35S]- binding assay for delta-opioid receptor.
Assay [10] has as its target T1, Mu-type opioid receptor. Briefly: Agonist potency using GTP-gamma [35S]- binding assay for mu-opioid receptor.

We go through 24 compounds from ChEMBL document CHEMBL1134689, “Novel C-terminus modifications of the Dmt-Tic motif: a new class of dipeptide analogues showing altered pharmacological profiles toward the opioid receptors” (J Med Chem, 2001).

Activity calls are given as the source filed them. No cut-off for these calls is given here.

The term IC50 denotes the concentration that inhibits the measured activity by half. Lower therefore signals greater potency in that assay. Broadly, the EC50 is the concentration needed to bring the measured effect to its halfway point. For orientation: Emax means the greatest response seen or fitted, relative to the assay's reference.

T3 sequence (P41145 whole entry): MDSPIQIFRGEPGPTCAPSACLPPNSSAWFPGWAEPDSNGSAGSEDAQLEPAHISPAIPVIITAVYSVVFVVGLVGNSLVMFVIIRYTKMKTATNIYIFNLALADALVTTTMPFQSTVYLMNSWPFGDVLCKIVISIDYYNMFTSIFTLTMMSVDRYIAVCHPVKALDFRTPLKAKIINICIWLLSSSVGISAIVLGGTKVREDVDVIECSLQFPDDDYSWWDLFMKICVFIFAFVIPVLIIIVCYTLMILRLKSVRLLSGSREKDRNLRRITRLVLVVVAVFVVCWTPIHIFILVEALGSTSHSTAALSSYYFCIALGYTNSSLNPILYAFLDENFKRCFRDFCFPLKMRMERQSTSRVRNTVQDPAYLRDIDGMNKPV
T2 sequence (P41143 whole entry): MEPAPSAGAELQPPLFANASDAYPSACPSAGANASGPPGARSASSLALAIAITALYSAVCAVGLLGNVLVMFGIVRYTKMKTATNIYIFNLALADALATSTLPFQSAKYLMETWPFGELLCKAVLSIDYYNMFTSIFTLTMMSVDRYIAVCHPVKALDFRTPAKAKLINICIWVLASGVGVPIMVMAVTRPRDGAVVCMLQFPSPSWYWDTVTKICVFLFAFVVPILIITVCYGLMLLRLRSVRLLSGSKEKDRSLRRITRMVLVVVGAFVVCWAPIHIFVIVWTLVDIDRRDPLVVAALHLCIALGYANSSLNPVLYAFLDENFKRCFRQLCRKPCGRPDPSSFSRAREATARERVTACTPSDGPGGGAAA
T1 sequence (P35372 whole entry): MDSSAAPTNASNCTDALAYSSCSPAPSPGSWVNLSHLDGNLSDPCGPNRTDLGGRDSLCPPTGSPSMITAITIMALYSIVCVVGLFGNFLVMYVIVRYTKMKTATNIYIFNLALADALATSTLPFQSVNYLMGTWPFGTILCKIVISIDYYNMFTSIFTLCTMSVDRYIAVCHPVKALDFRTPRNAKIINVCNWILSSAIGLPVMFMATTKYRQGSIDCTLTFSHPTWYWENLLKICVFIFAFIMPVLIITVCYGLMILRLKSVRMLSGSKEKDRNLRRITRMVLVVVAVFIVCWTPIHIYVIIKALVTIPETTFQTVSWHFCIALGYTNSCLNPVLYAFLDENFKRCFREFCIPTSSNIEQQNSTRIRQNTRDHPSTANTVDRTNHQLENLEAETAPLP

`Cc1cc(O)cc(C)c1C[C@H](N)C(=O)N1Cc2ccccc2C[C@H]1CO`: the IC50 at Mu-type opioid receptor [1] was 421 nM; in [2], 2 nM; in assay [4], more than 10000 nM. For the same compound, the NA result (at Mu-type opioid receptor [3]; in [5]) was “inactive” throughout.

For `Cc1cc(O)cc(C)c1C[C@H](N)C(=O)N1Cc2ccccc2C[C@H]1CN=C(N)N`, the IC50 was 12.8 nM at Mu-type opioid receptor [1], 3.2 nM in assay [2] and 345 nM in [4].

With `Cc1cc(O)cc(C)c1C[C@H](N)C(=O)N1Cc2ccccc2C[C@H]1CN(C)C`, the results for the IC50 (at Mu-type opioid receptor [1]; in assay [2]; in assay [4]) were 83.2 nM, 0.97 nM and 793 nM, respectively. For the same compound, in [5], the NA result is “inactive”.

Take `CC(C)[C@H](NC(=O)[C@H](CC(=O)O)NC(=O)[C@H](Cc1ccccc1)NC(=O)[C@@H](C)NC(=O)[C@@H](N)Cc1ccc(O)cc1)C(=O)N[C@H](C(=O)NCC(N)=O)C(C)C`: in assay [6], the NA result was “inactive”.

Take `Cc1cc(O)cc(C)c1C[C@H](N)C(=O)N1Cc2ccccc2C[C@H]1CNC(=O)Nc1ccccc1`: the values for the IC50 (on Mu-type opioid receptor [1]; in assay [2]; in assay [4]) were 1 nM, 0.13 nM and 4.8 nM, respectively. Further, the EC50 came to 161 nM in assay [7], 0.75 nM in assay [9] and 18.8 nM on Mu-type opioid receptor [10]. Besides, the Emax in assay [8] stood at 81.7%.

As for `Cc1cc(O)cc(C)c1C[C@H](N)C(=O)N1Cc2ccccc2C[C@H]1COCc1ccccc1`, the IC50 on Mu-type opioid receptor [1] worked out at 12.5 nM; in assay [2], 0.33 nM; in assay [4], 64.6 nM. Also, the NA entry at Mu-type opioid receptor [3] is “inactive”. The compound further gave an EC50 in [9] of 0.97 nM.

Turning to `Cc1cc(O)cc(C)c1C[C@H](N)C(=O)N1Cc2ccccc2C[C@H]1CNCC(C)(C)C`, the IC50 stood at 1.3 nM at Mu-type opioid receptor [1], 0.99 nM in [2] and 1.5 nM in assay [4]. Besides, the EC50 is 1.4 nM in assay [7] and 2.8 nM in [9]. The NA entry on Mu-type opioid receptor [3] was “inactive”. Also, in assay [8], the Emax came to 102%.

Consider `Cc1cc(O)cc(C)c1C[C@H](N)C(=O)N1Cc2ccccc2C[C@H]1C/N=C(/S)NC(C)(C)C`, for which, in assay [8], the Emax was 99.6%.

For `COC[C@@H]1Cc2ccccc2CN1C(=O)[C@@H](N)Cc1c(C)cc(O)cc1C`, the IC50 on Mu-type opioid receptor [1] stood at 458 nM; in [2], 1.3 nM; in assay [4], 2510 nM. For the same compound, the NA result in [5] is “inactive”.

For `Cc1cc(O)cc(C)c1C[C@H](N)C(=O)N1Cc2ccccc2C[C@H]1CNC(=S)NC(C)(C)C`, the IC50 worked out at 36 nM on Mu-type opioid receptor [1], 0.22 nM in [2] and 2.8 nM in assay [4]. Moreover, the EC50 came to 24.3 nM in assay [7] and 0.32 nM in assay [9].

In the case of `CC(=N)NC[C@@H]1Cc2ccccc2CN1C(=O)[C@@H](N)Cc1c(C)cc(O)cc1C`, the figures for the IC50 (at Mu-type opioid receptor [1]; in assay [2]; in assay [4]) were 33.2 nM, 9.9 nM and 996 nM, respectively.

As for `CC(=O)OC[C@@H]1Cc2ccccc2CN1C(=O)[C@@H](N)Cc1c(C)cc(O)cc1C`, the half-inhibitory concentration (IC50) on Mu-type opioid receptor [1] turned out to be 4.7 nM; in assay [2] it was 1.1 nM; in [4] it was 3100 nM. In addition, the NA entry (on Mu-type opioid receptor [3]; in [5]) was “inactive” in each case.

In the case of `C=CCOC[C@@H]1Cc2ccccc2CN1C(=O)[C@@H](N)Cc1c(C)cc(O)cc1C`, the IC50 worked out at 108 nM at Mu-type opioid receptor [1], 0.98 nM in assay [2] and 1450 nM in assay [4]. In addition, the NA result in assay [5] was “inactive”.

As to `Cc1cc(O)cc(C)c1C[C@H](N)C(=O)N1Cc2ccccc2C[C@H]1CNC(=O)NC(C)(C)C`, the IC50 on Mu-type opioid receptor [1] was 61.8 nM; in assay [2], 0.17 nM; in [4] it was 1.3 nM. In addition, the EC50 amounted to 6.9 nM in assay [7] and 0.65 nM in assay [9]. Further, the NA result at Mu-type opioid receptor [3] is “inactive”. In assay [8], this compound returned an Emax of 96.9%.

As for `Cc1cc(O)cc(C)c1C[C@H](N)C(=O)N1Cc2ccccc2C[C@H]1CN=[N+]=[N-]`, the IC50 is 94.6 nM on Mu-type opioid receptor [1], 1.1 nM in assay [2] and 1070 nM in assay [4]. The same compound showed an EC50 in assay [9] of 49.4 nM.

For `Cc1cc(O)cc(C)c1C[C@H](N)C(=O)N1Cc2ccccc2C[C@H]1CNC(=O)NC12CC3CC(CC(C3)C1)C2`, the IC50 on Mu-type opioid receptor [1] turned out to be 1.1 nM; in assay [2] it was 0.29 nM; in assay [4], 4.1 nM. The compound further displayed an EC50 in assay [7] of 11.5 nM. For the same compound, the NA result (on Mu-type opioid receptor [3]; in assay [5]) was “inactive” throughout. Further, the Emax in assay [8] worked out at 81.7%.

Turning to `Cc1cc(O)cc(C)c1C[C@H](N)C(=O)N1Cc2ccccc2C[C@H]1CNC(=O)c1ccccc1`, the IC50 at Mu-type opioid receptor [1] worked out at 0.98 nM; in assay [2], 0.24 nM; in assay [4], 307 nM. In assay [5], the NA result is “inactive”. Besides, the EC50 at Mu-type opioid receptor [10] was 109 nM.

With `Cc1cc(O)cc(C)c1C[C@H](N)C(=O)N1Cc2ccccc2C[C@H]1CNCc1ccccc1`, the IC50 stood at 0.65 nM at Mu-type opioid receptor [1], 0.41 nM in assay [2] and 1.5 nM in assay [4]. Moreover, the EC50 came to 6.8 nM in assay [7], 0.92 nM in [9] and 37.1 nM at Mu-type opioid receptor [10]. The Emax in assay [8] was determined as 100%.

On to `Cc1cc(O)cc(C)c1C[C@H](N)C(=O)N1Cc2ccccc2C[C@H]1CNC(=O)C(C)(C)C`, for which the IC50 at Mu-type opioid receptor [1] is 25.3 nM; in [2], 0.79 nM; in assay [4], 394 nM. In assay [5], the NA entry is “inactive”.

For `CC(=O)NC[C@@H]1Cc2ccccc2CN1C(=O)[C@@H](N)Cc1c(C)cc(O)cc1C`, the IC50 on Mu-type opioid receptor [1] was determined as 16.1 nM; in assay [2] it was 0.79 nM; in assay [4], 9380 nM. In assay [9], this compound displayed an EC50 of 1.5 nM.

As for `Cc1cc(O)cc(C)c1C[C@H](N)C(=O)N1Cc2ccccc2C[C@H]1CN`, the IC50 at Mu-type opioid receptor [1] amounted to 113 nM; in [2], 4.9 nM; in assay [4], 521 nM. The NA result in assay [5] is “inactive”.

As to `CCNC(=O)NC[C@@H]1Cc2ccccc2CN1C(=O)[C@@H](N)Cc1c(C)cc(O)cc1C`, the figures for the IC50 (at Mu-type opioid receptor [1]; in assay [2]; in assay [4]) were 169 nM, 0.99 nM and 321 nM, respectively. In assay [9], this compound displayed an EC50 of 5.7 nM.

As to `Cc1cc(O)cc(C)c1C[C@H](N)C(=O)N1Cc2ccccc2C[C@H]1C`, the IC50 stood at 3 nM on Mu-type opioid receptor [1], 1.7 nM in [2] and 764 nM in [4]. Also, the NA result in assay [5] is “inactive”.

Take `Cc1cc(O)cc(C)c1C[C@H](N)C(=O)N1Cc2ccccc2C[C@H]1CNC(=S)Nc1ccccc1`: the values for the IC50 (at Mu-type opioid receptor [1]; in [2]; in assay [4]) were 5.4 nM, 0.27 nM and 51.4 nM, respectively. The EC50 in [9] stood at 1.7 nM.
